Earlier results on two molecules are cited in patent US20070015279A1, “Methods of Selecting Pancreatic Endocrine Cells Using Protein Synthesis Inhibitors” (AmCyte Inc., priority 2005, published 2007).

SMILES strings stand for the structures. Values after ≈ are worked out from the molar mass of the structure shown.

One data set relates to RbbA. Conditions: control antibiotic; cited from earlier work.
The test system of data set [1] is 70S ribosome-associated ATPase activity. Conditions: cited from earlier work.
The subject of the next data set is 30S ribosomal subunit. Conditions: 3 μg/mL; cited from earlier work.
The test system of the next data set is cells. Conditions: cited from earlier work.

As for `[H]/N=C(/N)N[C@H]1[C@H](O)[C@@H](O)[C@H](O[C@@H]2O[C@@H](C)[C@](O)(C=O)[C@H]2O[C@@H]2O[C@@H](CO)[C@H](O)[C@@H](O)[C@@H]2NC)[C@@H](N/C(N)=N\[H])[C@@H]1O` [Streptomycin, streptomycin], in the data set on RbbA, the “RbbA released, relative to the amount hygromycin B releases” value was “about 25%”. Moreover, the “inhibition of the ATPase activity of ribosomes compared to that of hygromycin B” value in data set [1] is “about 20%”.

Turning to `NC[C@@H]1O[C@H](O[C@H]2[C@@H](O)[C@H](O[C@@H]3[C@@H](O)[C@H](N)C[C@H](N)[C@H]3O[C@H]3O[C@H](CO)[C@@H](O)[C@H](O)[C@H]3N)O[C@@H]2CO)[C@H](N)[C@@H](O)[C@@H]1O` [paromomycin], in the data set with 30S ribosomal subunit, the “reduction of the rate of 30S formation compared with control cells” value is given as “about 80%”. Besides, in the data set on cells, the “IC50, viable cell number” value is 2 µg/mL (≈ 3.25 µM).
